According to PubChem BioAssay AID256 (DTP/NCI, 2004):
Where “and” joins values, the source holds several entries; their conditions need not be identical. Identical values can stand only once. Toxic doses and inconclusive results are not listed.

Tested on: CD2F1 mice, L1210 leukemia ip, survival T/C
Test: NCI In Vivo Anticancer Drug Screen. Data for tumor model L1210 Leukemia (intraperitoneal) in CD2F1 (CDF1) mice
Settings: endpoint: mean survival time, higher = longer survival
Procedure, shortened: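 Activity against a transplanted murine tumor was judged by comparing the compound group with a vehicle group. The outcome in the treated animals was divided by that in the controls.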

[1] = dose: 100.0 mg/kg/injection, schedule: Q01DX009 (ip), vehicle: saline with Tween-80
[2] = dose: 50.0 mg/kg/injection, schedule: Q01DX009 (ip), vehicle: saline
[3] = dose: 100.0 mg/kg/injection, schedule: Q01DX009 (ip), vehicle: saline
[4] = dose: 200.0 mg/kg/injection, schedule: Q01DX009 (ip), vehicle: saline
[5] = dose: 100.0 mg/kg/injection, schedule: Q01DX001 (ip), vehicle: saline with Tween-80
[6] = dose: 200.0 mg/kg/injection, schedule: Q01DX001 (ip), vehicle: saline with Tween-80
[7] = dose: 400.0 mg/kg/injection, schedule: Q01DX001 (ip), vehicle: saline with Tween-80
[8] = dose: 100.0 mg/kg/injection, schedule: Q04DX003 (ip), vehicle: saline with Tween-80
[9] = dose: 100.0 mg/kg/injection, schedule: Q01DX001 (ip), vehicle: saline
[10] = dose: 200.0 mg/kg/injection, schedule: Q01DX001 (ip), vehicle: saline
[11] = dose: 400.0 mg/kg/injection, schedule: Q01DX001 (ip), vehicle: saline

Structure (SMILES): CCCCCCCCC1SC1CCCCCCCC(=O)NCCOC(=O)CCCCCCCC1SC1CCCCCCCC (stereo not drawn)
- T/C [1]: 92 % of control
- T/C (dose: 200.0 mg/kg/injection, schedule: Q01DX009 (ip), vehicle: saline with Tween-80): 95 % of control
- T/C (dose: 400.0 mg/kg/injection, schedule: Q01DX009 (ip), vehicle: saline with Tween-80): 93 % of control

Structure (SMILES): COc1ccc(C(=O)/C=C/c2cccc3ccccc23)cc1
- T/C (dose: 25.0 mg/kg/injection, schedule: Q01DX009 (ip), vehicle: saline with Tween-80): 91 % of control
- T/C (dose: 50.0 mg/kg/injection, schedule: Q01DX009 (ip), vehicle: saline with Tween-80): 93 % of control
- T/C [1]: 91 % of control

Structure (SMILES): CCOC(=O)C(Br)C(Br)c1ccccc1 (stereo not drawn)
- T/C [2]: 108 % of control
- T/C [3]: 103 % of control
- T/C [4]: 103 % of control

Structure (SMILES): O=C(OC1=CCc2ccccc21)c1ccc([N+](=O)[O-])cc1
- T/C (dose: 50.0 mg/kg/injection, schedule: Q01DX001 (ip), vehicle: saline with Tween-80): 101 % of control
- T/C [5]: 96 % of control and 97 % of control
- T/C [6]: 121 % of control and 96 % of control
- T/C [7]: 95 % of control and 97 % of control

Structure (SMILES): CCOC(=O)C(C(=O)COC)C(=O)OCC
- T/C (dose: 25.0 mg/kg/injection, schedule: Q01DX009 (ip), vehicle: water): 102 % of control
- T/C (dose: 50.0 mg/kg/injection, schedule: Q01DX009 (ip), vehicle: water): 97 % of control
- T/C (dose: 100.0 mg/kg/injection, schedule: Q01DX009 (ip), vehicle: water): 97 % of control
- T/C (dose: 200.0 mg/kg/injection, schedule: Q01DX009 (ip), vehicle: water): 94 % of control

Structure (SMILES): NSc1ccc([N+](=O)[O-])cc1
- T/C (dose: 25.0 mg/kg/injection, schedule: Q01DX001 (ip), vehicle: other): 270 % of control
- T/C (dose: 50.0 mg/kg/injection, schedule: Q01DX001 (ip), vehicle: other): 204 % of control

Structure (SMILES): COc1cc(OC)c2c(O)c3c(c(-c4ccc5cc6c(c(O)c5c4O)C(=O)CC(C)(O)C6)c2c1)CC(C)OC3C (stereo not drawn)
- T/C (dose: 0.5 mg/kg/injection, schedule: Q01DX009 (ip), vehicle: Klucel (hydroxypropylcellulose) (HPC)): 103 % of control
- T/C (dose: 1.0 mg/kg/injection, schedule: Q01DX009 (ip), vehicle: Klucel (hydroxypropylcellulose) (HPC)): 100 % of control
- T/C (dose: 2.0 mg/kg/injection, schedule: Q01DX009 (ip), vehicle: Klucel (hydroxypropylcellulose) (HPC)): 103 % of control

Structure (SMILES): N=C(N)SC1c2ccccc2-c2ccc(N)cc21 (stereo not drawn)
- T/C (dose: 25.0 mg/kg/injection, schedule: Q01DX009 (ip), vehicle: saline): 107 % of control
- T/C [2]: 102 % of control
- T/C [3]: 109 % of control
- T/C [8]: 103 % of control

Structure (SMILES): O=P(CCCCl)(OCCCCl)OCCCCl
- T/C [3]: 100 % of control
- T/C [4]: 101 % of control
- T/C (dose: 400.0 mg/kg/injection, schedule: Q01DX009 (ip), vehicle: saline): 100 % of control

Structure (SMILES): O=C1C2CCN(CC2)C1COc1cccc2ccccc12 (stereo not drawn)
- T/C [5]: 106 % of control
- T/C [6]: 95 % of control
- T/C [7]: 102 % of control

Structure (SMILES): CCOC1(CC)CN(Cc2ccccc2)CCO1 (stereo not drawn)
- T/C [8]: 100 % of control
- T/C (dose: 200.0 mg/kg/injection, schedule: Q04DX003 (ip), vehicle: saline with Tween-80): 100 % of control
- T/C (dose: 400.0 mg/kg/injection, schedule: Q04DX003 (ip), vehicle: saline with Tween-80): 97 % of control

Structure (SMILES): CC(C)(C)C(=O)/C(O)=C\c1ccccc1
- T/C [9]: 105 % of control
- T/C [10]: 100 % of control
- T/C [11]: 98 % of control

Structure (SMILES): CCC(CCC(C)C1CCC2C3CC=C4CC(O)CCC4(C)C3CCC12C)C(C)C (stereo not drawn) (tested in a mixture with another compound)
- T/C (dose: 25.0 mg/kg/injection, schedule: Q01DX009 (ip), vehicle: acetone): 93 % of control
- T/C (dose: 100.0 mg/kg/injection, schedule: Q01DX009 (ip), vehicle: acetone): 87 % of control

Structure (SMILES): Cc1cc(C2(c3cc(C)c(O)c(C(=O)O)c3)OS(=O)(=O)c3ccccc32)cc(C(=O)O)c1O
- T/C [9]: 104 % of control
- T/C [10]: 98 % of control
- T/C [11]: 106 % of control
